Experimental data from patent US20220409601A1, “COMBINATION CANNABINOID-NAD+ PRECURSOR FORMULATION FOR TREATMENT OF INFLAMMATION AND METHODS RELATED THERETO” (priority 2019, published 2022).
Read-outs that look alike come from different tables or passages of the source.

How the values were obtained:
[1] = system: GM-CSF; settings: IL1β 10 ng/ml, 24 hours, no serum
From the text: (§1) A clonal derivative of ATCC-certified normal chondrocytes was used for a study to determine cytokine expression. The parent line was originally derived from costal cartilage of adolescent […]. The cell line used is C-28/I2 accession number CVCL 0187. The cells were immortalized via retroviral vector-mediated SV40 Large T antigen expression. Cells were confirmed negative for mycoplasma contamination and genotyped by STR analysis to verify cell identity. This cell line is widely used as a model for studying normal and pathological cartilage repair mechanisms and inflammation.
(§2) The cells were cultured at 37° C. with 5% CO2, DMEM/F12 media supplemented with 10% heat-inactivated fetal bovine serum. Antimicrobials were not added to the media. Cells were maintained between 40 and 80% confluency to avoid terminal differentiation. Cells used for the experiments had been passaged no more than ten times prior to each experiment.

[2] = system: chondrocytes (C-28/I2); experiment: toxicity screen, maximum tolerable concentration in chondrocytes
From the text: as §1, §2
A series of pilot studies were performed to design the final full-scale experiment. First, a toxicity screen for each test compound was performed to establishment maximum tolerable concentrations in this model system. Second, assays were run to establish the optimal means of inducing a pro-inflammatory state in the cell culture system. Third, conditions were tested to set the most favorable dilution scheme in order to maintain samples within the linear range of detection for each analyte. To establish the test concentrations for each test compound, chondrocytes were treated with a serial dilution of each compound, for 24 and 48 hours under serum free conditions. Oleocanthal or CBD were tested at two-fold dilutions down from 50 micromolar (μM).

[3] = High level (CBD 6.00 μM, niacin 900 μM), FIG. 1, 2C
[4] = Moderate level (CBD 2.00 μM, niacin 300 μM), FIG. 1, 2B
[5] = 24 hours post-treatment, serum free, chondrocytes, microscopy (vacuolation, blebbing, reduced cell count), unit not given

SMILES	effect on GM-CSF expression [1, 3]	effect on GM-CSF expression [1, 4]	maximum tolerable concentration [2, 5]	maximum tolerable concentration ([2]; human, 24 h)
C=C(C)[C@@H]1CCC(C)=C[C@H]1c1c(O)cc(CCCCC)cc1O [CBD, cannabidiol]	This effect was not seen	This effect was not seen	604	–
O=C(O)c1cccnc1 [niacin, nicotinic acid]	This effect was not seen	This effect was not seen	–	1 mM
C/C=C(/C=O)[C@@H](CC=O)CC(=O)OCCc1ccc(O)cc1 [oleocanthal]	–	–	604	–
